Test [1] has as its system TFEB. The test can be described thus: TFEB translocation assay in HeLa cells (nuclear to cytoplasmic TFEB ratio, high-content imaging). It counts as cell-based. Particulars: Homo sapiens, 1.5 h, 90 mins incubation at 37° C., ratio of nuclear to cytoplasmic TFEB. How it is done:
Example B2. TFEB Translocation Assay
Rabbit TFEB antibody, Cell Signaling Technology #4240S
PFA 16% MeOH-free, Election Microscopy Sciences #50-980-487
HCS CellMask Deep Red, ThermoFisher Scientific #H32721
Plates: Perkin Elmer Phenoplate #605730 black optically clear, tissue culture treated 384-well plate
Example B2.2 Method, Day 1: Cells Seeded in 384WP
Cells were seeded in the afternoon. The outer one row of the plate was not used to avoid outer well edge effects.
HeLa cells were detached using trypsin, and the cells were counted using a cell counter.
4000 HeLa cells were seeded per well in […] growth media (DMEM with 10% FBS, 1 mM sodium pyruvate and Pen-Strep).
Example B2.3 Method, Day 2: Assay with TRPML1 Compounds+Staining
Compounds were added to cells using a Tecan D300e dispenser.
Cells were incubated for 90 mins at 37° C. with the compounds (compound range: 80 nM-[…] (2× step dilution—8 dilution steps, 3 replicates per condition)
The cells were fixed by adding 16.5 μL of 16% PFA (4% final) and incubating for 15 min at room temperature.
The cells were washed with 3× in PBS-TX (PBS+0.1% Triton X-100)−1×100 μL followed by 2×50 μL.
The cells were blocked and permeabilized in 30 μL of blocking buffer (PBS-TX+5% goat serum) for 1 h.
The cells were incubated with TFEB antibody (1:200, CST 4240S) in 30 μL blocking buffer overnight at 4° C. The plates were kept damp to avoid evaporation.
Example B2.4 Method, Day 3: Staining+Imaging
The cells were washed 3× in PBS-TX—3×100 μL with a Biotek EL406 washer.
The cells were incubated with Goat anti-Rb Alexa-Fluor 488 (1:2000), cell mask (1:10,000) and Hoechst (1:10,000) in 30 μL blocking buffer for 1 h at room temperature. The solution was dispensed using a 5 μL peristaltic cassette (EL406).
The cells were washed 3× in PBS-TX—3×100 μL with a EL406 washer, then […] PBS was dispensed using a 5 μL peristaltic cassette (EL406).
The cells were imaged on an Operetta CLS High-content imaging system using a 20× water immersion objective (NA 1.0) the same day.
Image analysis was performed using Harmony V4.9 (Perkin Elmer). Briefly, nuclei were segmented from background-corrected images using Hoechst intensity, and cell body segmented using HCS CellMask DeepRed. A sliding parabola filter was applied to the AlexaFluor 488 channel (TFEB), before sum pixel intensity in the nuclear and cytoplasmic regions was calculated. A ratio of nuclear to cytoplasmic TFEB was used to define TFEB translocation from the cytosolic to nuclear compartment. The EC50 values derived by fitting the data to a sigmoidal dose response curve using Prism 9 (Graphpad).

Test [2] deals with TRPML1 (Homo sapiens, UniProt Q9GZU1). The test can be described thus: Calcium flux in HEK293 overexpressing TRPML1 plasma membrane variant (FLIPR, Calcium 6 dye). It counts as cell-based. Conditions: HEK293/TRPML1-PM clone A5 cells; 4-parameter logistic fit; read-out: TRPML1 calcium flux (FLIPR) dose response: EC50. The method, boiled down: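 HEK293 clone expressing plasma-membrane-targeted TRPML1 (N- and C-terminal dileucine motifs deleted), loaded with Calcium 6 dye for 2 h at 37 °C in HBSS/20 mM HEPES pH 7.4. Fluorescence recorded 10 s baseline then 170 s after compound addition. Max-minus-min response over baseline fitted by 4-parameter logistic for EC50.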
Background: A change in cytosolic calcium serves as a functional read-out for many receptors and channels.

This passage reports EC50 results from patent publication US20250340510A1, “Substituted Phenylbenzenesulfonamide Derivatives and Uses Thereof” (Nine Square Therapeutics Corporation, priority 2022, published 2025).

pEC50: −log10 of the molar value.

TRPML1, sequence (Q9GZU1 17-572 limits assumed): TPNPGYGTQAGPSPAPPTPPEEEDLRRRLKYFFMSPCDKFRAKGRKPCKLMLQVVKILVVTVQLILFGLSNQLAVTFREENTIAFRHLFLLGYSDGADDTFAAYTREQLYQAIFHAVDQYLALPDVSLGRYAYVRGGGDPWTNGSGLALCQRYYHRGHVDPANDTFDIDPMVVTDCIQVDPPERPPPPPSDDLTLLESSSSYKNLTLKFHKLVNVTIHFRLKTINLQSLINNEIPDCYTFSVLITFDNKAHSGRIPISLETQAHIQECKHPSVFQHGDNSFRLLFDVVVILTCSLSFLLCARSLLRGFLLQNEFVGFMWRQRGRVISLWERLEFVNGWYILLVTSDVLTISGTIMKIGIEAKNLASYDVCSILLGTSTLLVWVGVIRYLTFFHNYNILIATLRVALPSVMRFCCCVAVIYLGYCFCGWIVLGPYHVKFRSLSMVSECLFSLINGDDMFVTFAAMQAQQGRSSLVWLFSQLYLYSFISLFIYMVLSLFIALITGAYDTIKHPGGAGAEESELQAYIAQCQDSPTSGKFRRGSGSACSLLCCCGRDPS

As for `CC(C)CCN(C)c1ccccc1NS(=O)(=O)c1ccc(S(=O)(=O)N(C)C)cc1` [Compound 6, N1-(2-(isopentyl(methyl)amino)phenyl)-N4,N4-dimethylbenzene-1,4-disulfonamide], the figures for the pEC50 in test [1] (HeLa) and in test [2] were 5.31 and 6.54, respectively.
For `CC(C)CN(C)c1c(Cl)cccc1NS(=O)(=O)c1ccc(S(=O)(=O)N(C)C)cc1` [Compound 76, N1-(3-chloro-2-(isobutyl(methyl)amino)phenyl)-N4,N4-dimethylbenzene-1,4-disulfonamide], the results for the pEC50 in test [1] (HeLa) and in test [2] were 6.48 and 6.28, respectively.
For `CN(CC12CC(C1)C2)c1ccccc1NS(=O)(=O)c1ccc(S(=O)(=O)N(C)C)cc1` [Compound 66, N1-(2-((bicyclo[1.1.1]pentan-1-ylmethyl)(methyl)amino)phenyl)-N4,N4-dimethylbenzene-1,4-disulfonamide], in that order: 6.03 and 6.63.
For `CN(CC1(F)CCCCC1)c1ccccc1NS(=O)(=O)c1ccc(S(=O)(=O)N(C)C)cc1` [Compound 96, N1-(2-(((1-fluorocyclohexyl)methyl)(methyl)amino)phenyl)-N4,N4-dimethylbenzene-1,4-disulfonamide], the negative-log EC50 (pEC50) is 6.85 in test [1] and 6.61 in test [2].
For `CN(c1ccccc1NS(=O)(=O)c1ccc(S(=O)(=O)N(C)C)cc1)C12CC(C)(C1)C2` [Compound 115, N1,N1-dimethyl-N4-(2-(methyl(3-methylbicyclo[1.1.1]pentan-1-yl)amino)phenyl) benzene-1,4-disulfonamide], the pEC50 in test [1] (HeLa) is 6.12; in test [2], 5.96.
The matching figures for `[2H]C([2H])([2H])N(c1ccccc1NS(=O)(=O)c1ccc(S(=O)(=O)N(C)C)cc1)C1CCCCC1` [Compound 102, N1-(2-(cyclohexyl(methyl-d3)amino)phenyl)-N4,N4-dimethylbenzene-1,4-disulfonamide]: 6.41 and 6.39.
With `CN(c1ccc(C#N)cc1NS(=O)(=O)c1ccc(S(=O)(=O)N(C)C)cc1)C1CCCCC1` [Compound 89, N1-(5-cyano-2-(cyclohexyl(methyl)amino)phenyl)-N4,N4-dimethylbenzene-1,4-disulfonamide], the pEC50 in test [1] was 5.62; in test [2], 6.17.
As to `CN(CC12CC(C)(C1)C2)c1ccccc1NS(=O)(=O)c1ccc(S(=O)(=O)N(C)C)cc1` [Compound 65, N1,N1-dimethyl-N4-(2-(methyl((3-methylbicyclo[1.1.1]pentan-1-yl)methyl)amino)phenyl)benzene-1,4-disulfonamide], the pEC50 is 6.40 in test [1] (HeLa) and 6.50 in test [2].
Take `CN(c1ccccc1NS(=O)(=O)c1ccc(S(=O)(=O)N(C)C)cc1)C1CCOC(C)(C)C1` (stereo not drawn) [Compound 111, N1-(2-((2,2-dimethyltetrahydro-2H-pyran-4-yl)(methyl)amino)phenyl)-N4,N4-dimethylbenzene-1,4-disulfonamide]: the results for the pEC50 in test [1] (HeLa) and in test [2] were 5.48 and 6.09, respectively.
For `CN(c1ccccc1NS(=O)(=O)c1ccc(S(=O)(=O)N(C)C)cc1)C1CCOC1(C)C` (stereo not drawn) [Compound 97, N1-(2-((2,2-dimethyltetrahydro-furan-3-yl)(methyl)amino)phenyl)-N4,N4-dimethylbenzene-1,4-disulfonamide], in that order: 6.29 and 6.46.
The matching figures for `CN(c1ccccc1NS(=O)(=O)c1ccc(S(=O)(=O)N(C)C)cc1)C1CCCC(F)(F)C1` (stereo not drawn) [Compound 104, N1-(2-((3,3-difluorocyclohexyl) (methyl)amino)phenyl)-N4,N4-dimethylbenzene-1,4-disulfonamide]: 6.24 and 6.15.
`Cc1nc(CN(C)c2ccccc2NS(=O)(=O)c2ccc(S(=O)(=O)N(C)C)cc2)ccc1F` [Compound 85, N1-(2-(((5-fluoro-6-methylpyridin-2-yl)methyl)(methyl)amino)phenyl)-N4,N4-dimethylbenzene-1,4-disulfonamide]: the pEC50 was 6.00 in test [1] (HeLa) and 6.35 in test [2].
The matching figures for `CN(c1ccccc1NS(=O)(=O)c1ccc(S(=O)(=O)N(C)C)cc1)C1CCC(F)(F)C1` (stereo not drawn) [Compound 99, N1-(2-((3,3-difluorocyclopentyl) (methyl)amino)phenyl)-N4,N4-dimethylbenzene-1,4-disulfonamide]: 6.24 and 6.36.
For `CN(c1ccccc1NS(=O)(=O)c1ccc(S(=O)(=O)N(C)C)cc1)C1(C)CCCCC1` [Compound 17, N1,N1-dimethyl-N4-(2-(methyl(1-methylcyclohexyl)amino)phenyl)benzene-1,4-disulfonamide], in that order: 6.35 and 6.72.
With `CN(Cc1cncs1)c1ccccc1NS(=O)(=O)c1ccc(S(=O)(=O)N(C)C)cc1` [Compound 55, N1,N1-dimethyl-N4-(2-(methyl(thiazol-5-ylmethyl)amino)phenyl)benzene-1,4-disulfonamide], the values for the pEC50 in test [1] (HeLa) and in test [2] were 6.06 and 6.60, respectively.
Consider `CN(CC1(C)CCOCC1)c1ccccc1NS(=O)(=O)c1ccc(S(=O)(=O)N(C)C)cc1` [Compound 10, N1,N1-dimethyl-N4-(2-(methyl((4-methyltetrahydro-2H-pyran-4-yl)methyl)amino)phenyl)benzene-1,4-disulfonamide], for which the pEC50 in test [1] (HeLa) is 5.63; in test [2], 6.06.
On to `CN(CC1CC1)c1ccccc1NS(=O)(=O)c1ccc(S(=O)(=O)N(C)C)cc1` [Compound 14, N1-(2-((cyclopropylmethyl) (methyl)amino)phenyl)-N4,N4-dimethylbenzene-1,4-disulfonamide], for which the pEC50 was 5.69 in test [1] (HeLa) and 5.81 in test [2].
With `Cc1cccc(NS(=O)(=O)c2ccc(S(=O)(=O)N(C)C)cc2)c1N(C)Cc1cncs1` [Compound 72, N1,N1-Dimethyl-N4-(3-methyl-2-(methyl(thiazol-5-ylmethyl)amino)phenyl)benzene-1,4-disulfonamide], the pEC50 is 5.75 in test [1] (HeLa) and 6.24 in test [2].
The matching figures for `CCN(CC)c1c(Cl)cccc1NS(=O)(=O)c1ccc(S(=O)(=O)N(C)C)cc1` [Compound 77, N1-(3-chloro-2-(diethylamino)phenyl)-N4,N4-dimethylbenzene-1,4-disulfonamide]: 6.15 and 6.33.
The matching figures for `CCCN(C)c1c(Cl)cccc1NS(=O)(=O)c1ccc(S(=O)(=O)N(C)C)cc1` [Compound 74, N1-(3-chloro-2-(methyl(propyl)amino)phenyl)-N4,N4-dimethylbenzene-1,4-disulfonamide]: 6.17 and 6.62.
The matching figures for `CN(c1ccccc1NS(=O)(=O)c1ccc(S(=O)(=O)N(C)C)cc1)C1CCCC1` [Compound 24, N1-(2-(cyclopentyl(methyl)amino)phenyl)-N4,N4-dimethylbenzene-1,4-disulfonamide]: 5.73 and 6.55.
Regarding `CN(CC1(C)COC1)c1ccccc1NS(=O)(=O)c1ccc(S(=O)(=O)N(C)C)cc1` [Compound 49, N1,N1-dimethyl-N4-(2-(methyl((3-methyloxetan-3-yl)methyl)amino)phenyl)benzene-1,4-disulfonamide], the results for the pEC50 in test [1] and in test [2] were 5.10 and 5.94, respectively.
For `CN(c1ccc(C(F)(F)F)cc1NS(=O)(=O)c1ccc(S(=O)(=O)N(C)C)cc1)C1CCCCC1` [Compound 110, N1-(2-(cyclohexyl(methyl)amino)-5-(trifluoromethyl)phenyl)-N4,N4-dimethylbenzene-1,4-disulfonamide], the figures for the pEC50 in test [1] and in test [2] were 6.61 and 6.59, respectively.
Take `CN(c1c(C#N)cccc1NS(=O)(=O)c1ccc(S(=O)(=O)N(C)C)cc1)C1CCCCC1` [Compound 91, N1-(3-cyano-2-(cyclohexyl(methyl)amino)phenyl)-N4,N4-dimethylbenzene-1,4-disulfonamide]: the pEC50 was 6.70 in test [1] (HeLa) and 7.11 in test [2].

For orientation: pEC50 means −log10 of the EC50, conventionally taken in molar units.
